Assay results taken from patent US11766430B2, “Methods of using a phenoxypropylamine compound to treat pain” (Minerva Neurosciences, Inc., priority 2018, dated 2023).
Where “and” joins values, the source holds several entries; their conditions need not be identical. Identical values can stand only once.

System: carrageenan-induced mechanical hyperalgesia in rats
Assay: Carrageenan-induced mechanical hyperalgesia, paw pressure test, time course to 240 min (Example 2)
Format: in vivo, male Sprague-Dawley rats
Procedure: In this model, inflammation is induced by intraplantar injection of carrageenan (2%) into the right hindpaw of the rat. Three hours later, reaction thresholds are measured using the paw pressure test. Pressure is gradually applied to both hind paws (inflamed and control) of the rat, and reaction thresholds are determined as the pressure (g) required to elicit paw withdrawal or vocalization. Morphine (3 mg/kg, s.c.) was used as a positive control.
The experiments in this study used fifty (50) male Sprague-Dawley rats (SPF status, Janvier, France), each weighing 204-260 grams. The rats were housed in a temperature (20-24° C.) and relative humidity (45%-65%) controlled room and acclimated to an artificial day/night cycle of 12 hours light (6.30 a.m. to 6.30 p.m.)/12 hours darkness. Rats had free access to sterilized tap water and were fed ad libitum with pelleted complete diet (reference A04, S.A.F.E.). Rats were housed 4 per cage (cages Type E) and were acclimated for a period of at least 5 days before any testing. Each rat was identified by tail markings. Based on the SPF status of the animal facilities, there is no reason to expect that contaminants were present in the food, water or bedding, at levels capable of interfering with the results of the tests.
Pain Test: Static mechanical hyperalgesia was assessed using the Paw Pressure test or Randall & Selitto test (Randall, L. O. and Selitto, J. J., A method for measurement of analgesic activity on inflamed tissue, Arch Int Pharmacodyn, 1957(111): 409-419). This test requires the application of an increasing pressure on the hind paws between a flat surface and a blunt pointer. This test is usually used with animals with one hind paw inflamed by an injection or injured by ligation, and one normal hind paw, to evaluate drugs for analgesic action. The apparatus exerts a steadily increasing force and reaction threshold is determined as the pressure (g) required to elicit paw withdrawal and/or vocalization. In the experiment, animals were gently handled by the experimenter and static mechanical hyperalgesia was assessed. Each reaction threshold measurement was done for both hind paws.
Five (5) experimental groups of 10 rats each were used. Each group was first injected with of 100 μL of a 2% carrageenan suspension in the plantar aspect of the right hindpaw. Three hours after carrageenan injection, paw withdrawal threshold was measured using the paw pressure test (Baseline). The 5 groups were then administered the following: • Group 1: vehicle (0.5% HPMC), i.p., solution (negative control); • Group 2: MIN-117 (0.01 mg/kg, i.p.) in 0.5% HPMC, suspension; • Group 3: MIN-117 (0.1 mg/kg, i.p.) in 0.5% HPMC, suspension; • Group 4: MIN-117 (1 mg/kg, i.p.) in 0.5% HPMC, suspension; and • Group 5: morphine (3 mg/kg, s.c.) in 0.9% NaCl, solution (positive control).
After administering vehicle, MIN-117, or morphine, the antihyperalgesic effect of the compounds was evaluated using the paw pressure test at 0 min. (T0), 30 min., 60 min., 120 min., and 240 min.
Vehicle and MIN-117 were administered intraperitoneally at 10 mL/kg. Morphine was subcutaneously administered at 5 mL/kg. Dosing and testing were performed in a random order by a blinded experimenter except for the morphine-treated group. Doses were expressed in terms of free active substance. Rats were sacrificed at the end of the experiment by CO2 inhalation pending subsequent removal by a certified company.
Results were assessed as: the paw withdrawal threshold (mean±s.e.m.) in grams of contact pressure for each group, calculated from individual paw withdrawal thresholds; the percentage of variation of the paw withdrawal threshold calculated from the mean value of the vehicle-treated group; and/or the percentage of activity. To determine a statistical effect of the test substance and the reference substance, data were analyzed by a non-parametrical test. The significance level was p<0.05.

[1] = 0.01 mg/kg i.p., 30 min, hydrochloride
[2] = 0.01 mg/kg i.p., 60 min, hydrochloride
[3] = 0.01 mg/kg i.p., 120 min, hydrochloride
[4] = 0.01 mg/kg i.p., 240 min, hydrochloride
[5] = 0.01 mg/kg i.p., Baseline, hydrochloride
[6] = 0.01 mg/kg i.p., T0 (baseline before dosing)
[7] = 0.01 mg/kg i.p., T0 (baseline before dosing), hydrochloride
[8] = 0.01 mg/kg i.p., T0 + 30 min, hydrochloride
[9] = 0.01 mg/kg i.p., T0 + 60 min, hydrochloride
[10] = 0.1 mg/kg i.p., 30 min, hydrochloride
[11] = 0.1 mg/kg i.p., 60 min, hydrochloride
[12] = 0.1 mg/kg i.p., 120 min, hydrochloride
[13] = 0.1 mg/kg i.p., 240 min, hydrochloride
[14] = 0.1 mg/kg i.p., Baseline, hydrochloride
[15] = 0.1 mg/kg i.p., T0 (baseline before dosing)

Cc1nnc(-c2cc3c(OC[C@@H](O)CN4CCC(c5ccc(Cl)c(Cl)c5)CC4)cccc3o2)o1.Cl [MIN-117, (2S)-1-(4-(3,4-dichlorophenyl)piperidin-1-yl)-3-((2-(5-methyl-1,3,4-oxadiazol-2-yl)benzofuran-4-yl)oxy)propan-2-ol hydrochloride]
Nociceptive threshold, control paw, individual rats [1]: 360 g (4×) and 380 g (3×) and 420 g and 340 g and 280 g | Nociceptive threshold, injured paw, individual rats [1]: 180 g (3×) and 220 g and 160 g (2×) and 140 g (2×) and 200 g (2×) | Nociceptive threshold, control paw, individual rats [2]: 380 g and 340 g (3×) and 320 g (2×) and 360 g (2×) and 420 g and 300 g | Nociceptive threshold, injured paw, individual rats [2]: 220 g (3×) and 160 g (3×) and 180 g (2×) and 140 g (2×) | Nociceptive threshold, control paw, individual rats [3]: 440 g and 360 g (2×) and 340 g and 320 g and 400 g (2×) and 420 g (2×) and 380 g | Nociceptive threshold, injured paw, individual rats [3]: 300 g and 180 g (2×) and 160 g (2×) and 200 g (4×) and 220 g | Nociceptive threshold, control paw, individual rats [4]: 340 g and 360 g (2×) and 380 g (2×) and 300 g and 320 g (3×) and 420 g | Nociceptive threshold, injured paw, individual rats [4]: 200 g (3×) and 180 g (4×) and 160 g (2×) and 140 g | Nociceptive threshold, control paw, individual rats [5]: 400 g (3×) and 380 g (3×) and 320 g and 360 g and 340 g (2×) | Nociceptive threshold, injured paw, individual rats [5]: 240 g and 180 g (5×) and 200 g (2×) and 160 g (2×) | % activity, injured paw [6]: 2% | % variation vs control paw, injured paw [6]: −50% | % variation vs vehicle-treated group, injured paw [6]: 2% | Nociceptive threshold, control paw (mean ± s.e.m.) [7]: 370.0 ± 9.1 g and 370 g | Nociceptive threshold, injured paw (mean ± s.e.m.) [7]: 186 ± 7.3 g and 186 g | % activity, injured paw (0.01 mg/kg i.p., T0 + 30 min): −1% | % variation vs control paw, injured paw (0.01 mg/kg i.p., T0 + 30 min): −51% | % variation vs pre-drug threshold, injured paw (0.01 mg/kg i.p., T0 + 30 min): −5% | Nociceptive threshold, control paw (mean ± s.e.m.) (0.01 mg/kg i.p., T0 + 30 min): 362 g | % variation vs vehicle-treated group, injured paw [8]: −1% and 1% | Nociceptive threshold, injured paw (mean ± s.e.m.) [8]: 176 ± 8.3 g and 176 g | % activity, injured paw (0.01 mg/kg i.p., T0 + 60 min): −6% | % variation vs control paw, injured paw (0.01 mg/kg i.p., T0 + 60 min): −49% | % variation vs pre-drug threshold, injured paw (0.01 mg/kg i.p., T0 + 60 min): −4% | Nociceptive threshold, control paw (mean ± s.e.m.) (0.01 mg/kg i.p., T0 + 60 min): 348 g | % variation vs vehicle-treated group, injured paw [9]: −5% and 5% | Nociceptive threshold, injured paw (mean ± s.e.m.) [9]: 178 ± 10.1 g and 178 g | % activity, injured paw (0.01 mg/kg i.p., T0 + 120 min): 9% | % variation vs control paw, injured paw (0.01 mg/kg i.p., T0 + 120 min): −48% | % variation vs pre-drug threshold, injured paw (0.01 mg/kg i.p., T0 + 120 min): 8% | % variation vs vehicle-treated group, injured paw (0.01 mg/kg i.p., T0 + 120 min): 8% | Nociceptive threshold, control paw (mean ± s.e.m.) (0.01 mg/kg i.p., T0 + 120 min): 384 g | Nociceptive threshold, injured paw (mean ± s.e.m.) (0.01 mg/kg i.p., T0 + 120 min, hydrochloride): 200 ± 12.6 g and 200 g | % activity, injured paw (0.01 mg/kg i.p., T0 + 240 min): −5% | % variation vs control paw, injured paw (0.01 mg/kg i.p., T0 + 240 min): −49% | % variation vs pre-drug threshold, injured paw (0.01 mg/kg i.p., T0 + 240 min): −4% | % variation vs vehicle-treated group, injured paw (0.01 mg/kg i.p., T0 + 240 min): −4% | Nociceptive threshold, control paw (mean ± s.e.m.) (0.01 mg/kg i.p., T0 + 240 min): 350 g | Nociceptive threshold, injured paw (mean ± s.e.m.) (0.01 mg/kg i.p., T0 + 240 min, hydrochloride): 178 ± 6.3 g and 178 g | Effect on injured paw withdrawal threshold vs vehicle-treated group (in words) (0.01 mg/kg i.p., time course 30-240 min): did not induce any significant increase | Nociceptive threshold, control paw, individual rats [10]: 440 g and 320 g (3×) and 460 g and 300 g and 360 g and 340 g (3×) | Nociceptive threshold, injured paw, individual rats [10]: 200 g (4×) and 160 g (2×) and 180 g (4×) | Nociceptive threshold, control paw, individual rats [11]: 360 g (3×) and 300 g (2×) and 420 g and 400 g and 320 g (2×) and 340 g | Nociceptive threshold, injured paw, individual rats [11]: 180 g (2×) and 140 g and 160 g (3×) and 200 g (3×) and 220 g | Nociceptive threshold, control paw, individual rats [12]: 380 g and 280 g and 420 g (2×) and 300 g and 340 g (3×) and 360 g (2×) | Nociceptive threshold, injured paw, individual rats [12]: 160 g (3×) and 140 g and 220 g and 200 g (2×) and 180 g (3×) | Nociceptive threshold, control paw, individual rats [13]: 400 g (2×) and 320 g and 340 g and 280 g and 360 g (3×) and 380 g and 300 g | Nociceptive threshold, injured paw, individual rats [13]: 180 g (3×) and 160 g (3×) and 140 g and 220 g (2×) and 200 g | Nociceptive threshold, control paw, individual rats [14]: 420 g (2×) and 380 g (2×) and 400 g (2×) and 360 g (2×) and 340 g and 320 g | Nociceptive threshold, injured paw, individual rats [14]: 200 g (3×) and 180 g (3×) and 160 g (4×) | % activity, injured paw [15]: −2% | % variation vs control paw, injured paw [15]: −53% | % variation vs vehicle-treated group, injured paw [15]: −2% | Nociceptive threshold, control paw (mean ± s.e.m.) (0.1 mg/kg i.p., T0 (baseline before dosing), hydrochloride): 378.0 ± 10.5 g and 378 g
